Measurements: US20250059499A1, “CELL-SURFACE ENGINEERING COMPOSITIONS AND METHODS FOR THE PREVENTION OF IMMUNE REJECTION” (THE UNIVERSITY OF BRITISH COLUMBIA, priority 2021, published 2025)
LPG = linear polyglycerol, Mn 14,900 Da

Experiments:
[1] = system: IL-2 activated PBMCs on TNF-α activated Ea.hy926 monolayers; assay: PBMC adhesion to endothelial surfaces; format: cell-based, human; settings: 0.5 mM LPG-Q or 0.56 mM LPG-Q-Sia3Lac
Description: Confluent Ea.hy926 monolayers seeded in a 48 well plate (30,000 cells/well) were activated with TNF-α (2000 U/mL, 3 hours). To obtain PBMCs, EDTA anticoagulated blood from healthy donors was subjected to ficoll density gradient centrifugation Histopaque™-1077 (Sigma Aldrich™). PBMCs were cultured for 24 h in RPMI-1640 containing 10% FBS (v/v), 1000 U/mL recombinant human IL-2 (Cedarlane™)^11 and 1% P/S. Prior to fluorescent labelling, cultured PBMCs were tested for absence of platelets by labelling an aliquot of cells with FITC-labelled anti-human […] (1:200 Beckman Coulter™) and analyzed by flow cytometry (CytoFLEX™, Beckman Coulter™). PBMCs containing <1% platelets were implemented for further study. The PBMC composition was also measured using a hematological analyzer (XN-550™ automated hematology analyzer, Sysmex Canada Inc.™). Following IL-2 treatment the typical composition of the PBMCs were ˜80% lymphocytes, 5% immature granulocytes, 2% basophils and 13% monocytes. […] PMBC adhesion was quantified by lysing the cells with RIPA buffer, spinning at 15,000 g to remove cell debris and measuring the fluorescent intensity of the CMFDA Dye in the lysate (λex/λem=492/517 nm using a plate reader (Spectramax3™, Molecular Devices™).

Ea.hy926 cells = assay: Polymer attachment to endothelial cell surface by flow cytometry (BODIPY FL-labelled polymer); format: cell-based
Description: Ea.hy 926 cells at […] confluence were trypsinized and plated in a 96 well plate at 15,000 cells/well. Cells reached 100% confluence at day 3 and allowed to grow for a further 4 days at 37° C. and 5% CO2. Cells were washed twice with cold DPBS and incubated with UW solution freshly supplemented with 3 mM GSH, 5 mM CaCl2, 0.2 […] and 0.5 mM LPG-Q or 0.56 mM glycopolymers ([…]) unless otherwise noted. The solutions were mixed thoroughly and incubated at 4° C. for 30 minutes under static conditions. The cell supernatant was collected and the cells were washed three times with PBS and subjected to further analysis. The assessment of polymer attachment to endothelial cells are assessed by ammonia assay, flow cytometry and polymer mediated cell-surface camouflage of surface proteins. […] To quantify the extent of cell surface engineering, polymers were attached to endothelial surfaces according to the general cell surface engineering procedures outlined in previously using polymer in which 10% were labelled with BODIPY FLTM (ratio of non-labeled polymer: BODIPY labeled polymer=9:1). The cell monolayers were trypsinized and subjected to flow cytometry (CytoFLEXTM, Beckman CoulterTM) in which 10,000 events were acquired and the median fluorescent intensity (MFI) in the 488 channel was recorded.

linear polyglycerol glutamine (Ac-GQQQLGGGGG-{LPG}; not fully specified; also: part of the polymer BODIPY FL-labelled in some experiments) [LPG-Q]
reduction of PBMC adhesion to endothelial cells compared to the control [1]: ~2.8 fold
LPG-Q attachment versus concentration (Ea.hy926 cells; 0.2 mM-3.0 mM, 4° C., 30 minutes, UW solution with gtTGase): dose-dependent increase
levels of cell-surface labelling, enzyme-mediated approach compared to succinimidyl succinate amine coupling (Ea.hy926 cells; 30 min at 4° C. in UW solution with gtTGase, versus LPG-SS): ~4.4 fold
